Experimental data reported in patent US20250129430A1, “HIGH ATP-AFFINITY PROTEIN AS THERAPEUTIC TARGET FOR INTRACTABLE CANCER MOLECULAR SUBTYPES AND INHIBITOR THEREOF” (VeraVerse Co., Ltd., priority 2021, published 2025).

Legend:
Experiment in all cases: Cell viability drug screen, 12-point dose-response AUC
Type in all cases: cell-based, human
FU97 = system: FU97; design: Average Area Under the Viability Curve (AUC), AUC norm value: scale not given here; details: FU97 cells, 72 hours; for area under the viability curve (AUC), normalized: 12-point dose-response
Method in brief: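 Trapezoidal AUC of a 12-point, DMSO-normalized dose-response curve. Luminescent viability was measured after 72 h of exposure at 37° C to half-log serial dilutions (0.5% DMSO control), dosed 24 h after plating FU97 cells at 5×10^3 per well.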

SNU16 = SNU16 cells, 72 hours; for area under the viability curve (AUC), normalized: 12-point dose-response
Method in brief: (§1)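 AUC comes from 12-point half-log dose–response curves, normalized to DMSO-treated cells and integrated trapezoidally, repeats averaged. Luminescent viability read after 72 h compound exposure at 37 °C; cells plated 5×10^3 per well 24 h before dosing.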

SNU216 = details: 72 hours; for area under the viability curve (AUC), normalized: SNU216 cells, 12-point dose-response
Method in brief: (§2)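 Viability: luminescence (Glo kit, 15 min RT), normalized to 0.5% DMSO vehicle. Dosing: half-log, 12 concentrations, 72 h. Cells: 5×10^3/well, treated 24 h after plating. Value: trapezoidal AUC, mean of repeats.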

NCC24 = NCC24 cells, 72 hours; for area under the viability curve (AUC), normalized: 12-point dose-response
Method in brief: as §1

SNU484 = details: 72 hours; for area under the viability curve (AUC), normalized: SNU484 cells, 12-point dose-response
Method in brief: as §1

MKN45 = details: 72 hours; for area under the viability curve (AUC), normalized: MKN45 cells, 12-point dose-response
Method in brief: as §2

SK4 = details: 72 hours; for area under the viability curve (AUC), normalized: SK4 cells, 12-point dose-response
Method in brief: as §1

MKN1 = MKN1 cells, 72 hours; for area under the viability curve (AUC), normalized: 12-point dose-response
Method in brief: as §1

KATO3 = KATO3 cells, 72 hours; for area under the viability curve (AUC), normalized: 12-point dose-response
Method in brief: as §1

AGS = details: 72 hours; for area under the viability curve (AUC), normalized: AGS cells, 12-point dose-response
Method in brief: as §2

YCC3 = YCC3 cells, 72 hours; for area under the viability curve (AUC), normalized: 12-point dose-response
Method in brief: as §1

SNU601 = SNU601 cells, 72 hours; for area under the viability curve (AUC), normalized: 12-point dose-response
Method in brief: as §1

MKN28 = MKN28 cells, 72 hours; for area under the viability curve (AUC), normalized: 12-point dose-response
Method in brief: as §1

YCC2 = YCC2 cells, 72 hours; for area under the viability curve (AUC), normalized: 12-point dose-response
Method in brief: as §1

SNU1967 = SNU1967 cells, 72 hours; for area under the viability curve (AUC), normalized: 12-point dose-response
Method in brief: as §1

SNU668 = details: 72 hours; for area under the viability curve (AUC), normalized: SNU668 cells, 12-point dose-response
Method in brief: as §1

NCC59 = NCC59 cells, 72 hours; for area under the viability curve (AUC), normalized: 12-point dose-response
Method in brief: as §1

Hs746T = details: 72 hours; for area under the viability curve (AUC), normalized: Hs746T cells, 12-point dose-response
Method in brief: as §1

SNU1750 = details: 72 hours; for area under the viability curve (AUC), normalized: SNU1750 cells, 12-point dose-response
Method in brief: as §1

YCC11 = details: 72 hours; for area under the viability curve (AUC), normalized: YCC11 cells, 12-point dose-response
Method in brief: as §1

SNU1 = SNU1 cells, 72 hours; for area under the viability curve (AUC), normalized: 12-point dose-response
Method in brief: as §1

SNU620 = SNU620 cells, 72 hours; for area under the viability curve (AUC), normalized: 12-point dose-response
Method in brief: as §1

MKN74 = MKN74 cells, 72 hours; for area under the viability curve (AUC), normalized: 12-point dose-response
Method in brief: as §2

SNU719 = SNU719 cells, 72 hours; for area under the viability curve (AUC), normalized: 12-point dose-response
Method in brief: as §2

SNU638 = SNU638 cells, 72 hours; for area under the viability curve (AUC), normalized: 12-point dose-response
Method in brief: as §1

NCC20 = NCC20 cells, 72 hours; for area under the viability curve (AUC), normalized: 12-point dose-response
Method in brief: as §1

NCC19 = NCC19 cells, 72 hours; for area under the viability curve (AUC), normalized: 12-point dose-response
Method in brief: as §1

OCUM1 = OCUM1 cells, 72 hours; for area under the viability curve (AUC), normalized: 12-point dose-response
Method in brief: as §1

NCI_N87 = NCI_N87 cells, 72 hours; for area under the viability curve (AUC), normalized: 12-point dose-response
Method in brief: as §1

CCCOc1ccc2nc(NC(=O)OC)[nH]c2c1 [Oxybendazole]
area under the viability curve (AUC), normalized (FU97): −0.3548 | area under the viability curve (AUC), normalized (SNU16): 2.326 | area under the viability curve (AUC), normalized (SNU216): 1.744 | area under the viability curve (AUC), normalized (NCC24): −1.131 | area under the viability curve (AUC), normalized (SNU484): −0.00299 | area under the viability curve (AUC), normalized (MKN45): 2.187 | area under the viability curve (AUC), normalized (SK4): −0.1414 | area under the viability curve (AUC), normalized (MKN1): −0.5859 | area under the viability curve (AUC), normalized (KATO3): 3.472 | area under the viability curve (AUC), normalized (AGS): −1.064 | area under the viability curve (AUC), normalized (YCC3): 2.897 | area under the viability curve (AUC), normalized (SNU601): 1.095 | area under the viability curve (AUC), normalized (MKN28): −0.1307 | area under the viability curve (AUC), normalized (YCC2): 0.7894 | area under the viability curve (AUC), normalized (SNU1967): 0 | area under the viability curve (AUC), normalized (SNU668): −0.3638 | area under the viability curve (AUC), normalized (NCC59): 2.518 | area under the viability curve (AUC), normalized (Hs746T): 1.204 | area under the viability curve (AUC), normalized (SNU1750): 0.4952 | area under the viability curve (AUC), normalized (YCC11): −0.2902 | area under the viability curve (AUC), normalized (SNU1): −1.007 | area under the viability curve (AUC), normalized (SNU620): −1.528 | area under the viability curve (AUC), normalized (MKN74): 0.4498 | area under the viability curve (AUC), normalized (SNU719): 3.17 | area under the viability curve (AUC), normalized (SNU638): −0.2808 | area under the viability curve (AUC), normalized (NCC20): −0.7466 | area under the viability curve (AUC), normalized (NCC19): 1.219 | area under the viability curve (AUC), normalized (OCUM1): 1.059 | area under the viability curve (AUC), normalized (NCI_N87): −0.1928

CN(C)Cc1c(C(=O)NCCOc2ccc(C(=O)NO)cc2)oc2ccccc12 [PCI-24781]
Average Area Under the Viability Curve (AUC), AUC norm value (FU97): −1.786 | Average Area Under the Viability Curve (AUC), AUC norm value (SNU16): −1.233 | Average Area Under the Viability Curve (AUC), AUC norm value (SNU216; SNU216 cells (non-SEM subtype)): 0.03042 | Average Area Under the Viability Curve (AUC), AUC norm value (NCC24): −0.2766 | Average Area Under the Viability Curve (AUC), AUC norm value (SNU484; SNU484 cells (SEM subtype)): 0.1533 | Average Area Under the Viability Curve (AUC), AUC norm value (MKN45; MKN45 cells (non-SEM subtype)): 2.259 | Average Area Under the Viability Curve (AUC), AUC norm value (SK4; SK4 cells (SEM subtype)): 0.451 | Average Area Under the Viability Curve (AUC), AUC norm value (MKN1): 0.6581 | Average Area Under the Viability Curve (AUC), AUC norm value (KATO3): −0.2111 | Average Area Under the Viability Curve (AUC), AUC norm value (AGS; AGS cells (non-SEM subtype)): −1.161 | Average Area Under the Viability Curve (AUC), AUC norm value (YCC3): 0.8426 | Average Area Under the Viability Curve (AUC), AUC norm value (SNU601): 0.6141 | Average Area Under the Viability Curve (AUC), AUC norm value (MKN28): −0.378 | Average Area Under the Viability Curve (AUC), AUC norm value (YCC2): 0.00064 | Average Area Under the Viability Curve (AUC), AUC norm value (SNU1967): −1.126 | Average Area Under the Viability Curve (AUC), AUC norm value (SNU668; SNU668 cells (SEM subtype)): 0.53 | Average Area Under the Viability Curve (AUC), AUC norm value (NCC59): 0.9766 | Average Area Under the Viability Curve (AUC), AUC norm value (Hs746T; Hs746T cells (SEM subtype)): −0.03183 | Average Area Under the Viability Curve (AUC), AUC norm value (SNU1750; SNU1750 cells (SEM subtype)): −1.499 | Average Area Under the Viability Curve (AUC), AUC norm value (YCC11; YCC11 cells (SEM subtype)): −0.09531 | Average Area Under the Viability Curve (AUC), AUC norm value (SNU1): 0.3429 | Average Area Under the Viability Curve (AUC), AUC norm value (SNU620): −0.6966 | Average Area Under the Viability Curve (AUC), AUC norm value (MKN74): 0.2128 | Average Area Under the Viability Curve (AUC), AUC norm value (SNU719): 1.428 | Average Area Under the Viability Curve (AUC), AUC norm value (SNU638): −0.06055 | Average Area Under the Viability Curve (AUC), AUC norm value (NCC20): −1.065 | Average Area Under the Viability Curve (AUC), AUC norm value (NCC19): 0.3282 | Average Area Under the Viability Curve (AUC), AUC norm value (OCUM1): 0 | Average Area Under the Viability Curve (AUC), AUC norm value (NCI_N87): −0.3803

CC(=O)O[C@H]1C(=O)[C@@]2(C)[C@H]([C@H](OC(=O)c3ccccc3)[C@]3(O)C[C@H](OC(=O)[C@H](O)[C@@H](NC(=O)c4ccccc4)c4ccccc4)C(C)=C1C3(C)C)[C@]1(OC(C)=O)CO[C@@H]1C[C@@H]2O [Paclitaxel (Taxol), Paclitaxel]
area under the viability curve (AUC), normalized (FU97): 0.989 | area under the viability curve (AUC), normalized (SNU16): −0.5105 | area under the viability curve (AUC), normalized (SNU216): 2.148 | area under the viability curve (AUC), normalized (NCC24): −1.616 | area under the viability curve (AUC), normalized (SNU484): −0.3604 | area under the viability curve (AUC), normalized (MKN45): 1.473 | area under the viability curve (AUC), normalized (SK4): −0.872 | area under the viability curve (AUC), normalized (MKN1): −1.258 | area under the viability curve (AUC), normalized (KATO3): 5.3572 | area under the viability curve (AUC), normalized (AGS): −1.831 | area under the viability curve (AUC), normalized (YCC3): 3.81 | area under the viability curve (AUC), normalized (SNU601): −1.106 | area under the viability curve (AUC), normalized (MKN28): −0.2731 | area under the viability curve (AUC), normalized (YCC2): 0.5673 | area under the viability curve (AUC), normalized (SNU1967): 0.05016 | area under the viability curve (AUC), normalized (SNU668): −0.02282 | area under the viability curve (AUC), normalized (NCC59): 3.637 | area under the viability curve (AUC), normalized (Hs746T): 0.7342 | area under the viability curve (AUC), normalized (SNU1750): 0.811 | area under the viability curve (AUC), normalized (YCC11): −0.8302 | area under the viability curve (AUC), normalized (SNU1): −1.778 | area under the viability curve (AUC), normalized (SNU620): −1.998 | area under the viability curve (AUC), normalized (MKN74): 0.186 | area under the viability curve (AUC), normalized (SNU719): 4.877 | area under the viability curve (AUC), normalized (SNU638): −0.3898 | area under the viability curve (AUC), normalized (NCC20): 0 | area under the viability curve (AUC), normalized (NCC19): 1.902 | area under the viability curve (AUC), normalized (OCUM1): 2.909 | area under the viability curve (AUC), normalized (NCI_N87): −1.013
